Results from patent publication US20050261319A1, “Novel 2-amino-4-quinazolinones and 2-amino-4-oxoquinazolones as LXR nuclear receptor binding compounds with partial agonistic properties” (priority 2002, published 2005).

Columns and labels:
human LXRalpha LBD = target: T1, human LXRalpha LBD (Homo sapiens, UniProt Q13133, A196R); test: In vitro screening for LXR binding to coactivator Tif2 (LANCE TR-FRET); type: biochemical
T1 construct: from amino acids 155 of hLXRalpha to 447; made in house; host or cells: SF9 insect cells (baculovirus) for LXRalpha LBD; E. coli BL21 for Tif2 fragment
T1 sequence (Q13133 155-447 A196R): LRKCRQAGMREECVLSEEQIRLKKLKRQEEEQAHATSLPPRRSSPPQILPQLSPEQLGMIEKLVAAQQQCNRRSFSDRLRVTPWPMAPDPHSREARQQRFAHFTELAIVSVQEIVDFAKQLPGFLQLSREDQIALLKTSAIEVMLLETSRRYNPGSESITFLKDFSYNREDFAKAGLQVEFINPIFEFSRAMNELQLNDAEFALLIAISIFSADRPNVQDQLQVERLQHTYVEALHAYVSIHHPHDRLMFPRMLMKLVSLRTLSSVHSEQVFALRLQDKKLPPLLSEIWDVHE
T1 sequence (Q15596 548-878 partner limits assumed): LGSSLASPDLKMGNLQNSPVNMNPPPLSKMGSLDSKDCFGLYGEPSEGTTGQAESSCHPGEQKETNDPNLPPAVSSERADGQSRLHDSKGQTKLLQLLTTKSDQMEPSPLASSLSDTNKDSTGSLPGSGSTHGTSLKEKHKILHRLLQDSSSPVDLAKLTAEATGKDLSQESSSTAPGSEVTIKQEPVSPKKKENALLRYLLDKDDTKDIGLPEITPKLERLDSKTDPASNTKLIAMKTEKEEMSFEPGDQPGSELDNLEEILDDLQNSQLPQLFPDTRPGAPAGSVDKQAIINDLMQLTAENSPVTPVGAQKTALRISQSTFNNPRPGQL
From the text: For screening purposes a GST and 6× His fusion of the LBD (from amino acids 155 of hLXRalpha to 447) of human LXRalpha was constructed by first cloning a Gateway cassette (Invitrogen) in frame into the Sma I site of the pAGGHLT Polylinker (Pharmingen). Then a PCR fragment specifically amplified from human liver cDNA was cloned into the resulting pACGHLT-GW following the manufacturers instructions for Gateway cloning (Invitrogen) to yield pACGHLT-GW-hLXRalphaLBD.
100% sequence integrity of all recombinant products was verified by sequencing. Recombinant Baculovirus was constructed from pACGHLT-GW-hLXRalphaLBD using the Pharmingen Baculovirus Expression vector system according to instructions of the manufacturer. Monolayer cultures of SF9 cells were infected by the virus as recommended by Pharmingen or 200 ml cultures of 1×10^6 cells/ml grown in 2 liter Erlenmeyer flasks on an orbital shaker at 30 rpm were infected by 10 ml of same virus stock. In both cases cells were harvested 3 days after infection. All cell growth was performed in Gibco SF900 II with Glutamine (Invitrogen) medium without serum supplementation at 28° C. Since SF9 cells contain significant amounts of endogenous 30 GST, purification was performed via His and not via GST affinity chromatography.
To this end instructions of Pharmingen for purification of recombinant His tagged proteins from SF9 cells were followed with the following modifications: All detergents were omitted from the buffers and cells were lysed on ice by 5 subsequent sonication pulses using a sonicator needle at maximum power.
All eluates were dialyzed against 20 mM Tris/HCl pH 6.8, 300 mM KCl; 5 mM MgCl2;1 mM DTT; 0.2 mM PMSF; 10% Glycerol. A typical dialyzed eluate fraction contained the fusion protein at a purity of more than 80%. Total protein concentration was 0.1-0.3 mg/ml.
For E. coli expression of a NR coactivator, pDest17-hTif2BD expressing an NR interaction domain from amino acids 548-878 of human Tif2 (Acc. No: XM011633 Ref Seq) tagged by 6 N-terminal His residues was constructed. Therefore, a PCR fragment specifically amplified from human liver cDNA was subcloned into pDest 17 (Invitrogen) following the manufacturers instructions for Gateway cloning (Invitrogen). Primers used for Amplification were: […]
For E. coli expression plasmid DNA was transformed into chemically competent E. coli BL21 (Invitrogen, USA) and cells were grown to an OD600 of 0.4-0.7 before expression was induced by addition of 0.5 mM IPTG according instructions of the manufacturer (Invitrogen). After induction for 8 hours at 30° C. cells were harvested by centrifugation for 10 minutes at 5000×g. Fusion proteins were affinity purified using Ni—NTA Agarose (QIAGEN) according to the instructions of the manufacturer.
Recombinant Tif2 construct was dialyzed against 20 mM Tris/HCL pH 7.9; 60 mM KCl; 5 mM MgCl2; 1 mM DTT, 0.2 mM PMSF; 10% glycerol. A typical dialyzed eluate fraction contained the fusion protein at a purity of more than 80%. Total protein concentration was 0.1-0.3 mg/ml.
The TIF2 fragment was subsequently biotinylated by addition of 5-40 ul/ml Tif2 fraction of a Biotinamidocaproate N-Hydroxysuccinimide-ester (Sigma) solution (20 mg/ml in DMSO). Overhead rotating samples were incubated for 2 hours at room temperature. Unincorporated label was then separated using G25 Gel filtration chromatography (Pharmacia Biotech, Sweden). Protein containing fractions from the column were pooled and tested for activity in the assay as described below.
For screening of compound libraries as provided for by the methods shown below in the examples for substances which influence the LXR/Tif 2 interaction, the PerkinElmer LANCE technology is applied. This method relies on the binding dependent energy transfer from a donor to an acceptor fluorophore attached to the binding partners of interest. […]

[1] = tested on: FAS and SREBP-1c in HepG2 cells; test: mRNA content of FAS and SREBP-1c in HepG2 cells (TaqMan); type: cell-based
Method: THP-1 (3×10^5 cells per dish) cells were seeded in […] RPMI-1640 medium (ATTC, Cat. No. 30-2001) containing 10% FCS (GIBCO) and 100 nM TPA and cultivated at 37° C. in 5% CO2 for 24 or 48 hours. HepG2 (4.5×10^5 cells per dish) were seeded in 24 well dishes in 3 ml DMEM Medium containing 10% FCS (GIBCO) and cultivated at 37° C. in 5% CO2 for 48 hours as indicated in FIG. 8B or until they are approx. 60% confluent.
The medium was then removed and replaced with medium containing 10% charcoal/stripped FCS (Hyclone) for 12 h.
LXR compounds are dissolved in DMSO, with the final solvent concentration never exceeding 0.125%. All treatments are done in triplicates and experiments repeated twice. Total RNA is extracted using the Qiagen Rneasy Mini Kit and treated with DNase (DNA free kit, Ambion). RNA is reverse transcribed with Oligo (dT) primer and real-time reverse transcription PCR (TaqMan) is performed using the ABI Prism 7900HT Sequence Detection System and reagents supplied by Applied Biosystems. mRNA steady state levels are normalised to H3 histone (H3F3A) expression levels.
The sequences of forward primers, reverse primers and TaqMan probes are as follows

Row | EC50 (human LXRalpha LBD; FRET assay, read-out: EC50 at LXR (half-maximal effective concentration)) [µM] | Structure (SMILES) | upregulation of FAS [1] | upregulation of SREBP-1c [1] | active as agonist / partial agonist of the LXR human nuclear receptor (human LXRalpha LBD)
1 | 2 | C=CCn1c(N2C3CC(C)(C)CC2(C)C3)nc2ccc(I)cc2c1=O (stereo not drawn) [formula (9)] | does not significantly upregulate | much reduced | –
2 | – | CCCn1c(N2[C@@H]3CC(C)(C)C[C@@]2(C)C3)nc2cccc(F)c2c1=O [formula (11)] | – | – | active as partial agonist
3 | – | C=CCn1c(N2[C@@H]3CC(C)(C)C[C@@]2(C)C3)nc2cccc(F)c2c1=O [formula (12)] | – | – | active as partial agonist
4 | – | CC(C)n1c(N2C3CC(C)(C)CC2(C)C3)nc2ccc(I)cc2c1=O (stereo not drawn) [formula (10)] | – | – | active as partial agonist
